Experiments:
Nampt = target: T1, Nampt (Homo sapiens, UniProt P43490); assay: Nicotinamide phosphoribosyltransferase (Nampt/PBEF) activity in SMC lysates, [14C]nicotinamide to NMN; type: cell-based
T1 construct: endogenous in cells; host or cells: human vascular SMCs (primary and HITC6), whole cell lysates
Protocol: Nicotinamide Phosphoribosyltransferase Activity. […] Labelled acetone-precipitable nicotinamide mononucleotide was quantified by scintillation counting.
Assessment of Nicotinamide Phosphoribosyltransferase Activity. […] Briefly, SMCs were lysed in buffer containing 10 mM NaH2PO4/Na2HPO4, at pH 8.8. Cell lysates were incubated with 0.5 μM [carbonyl-^14C]nicotinamide and 0.5 mM phosphoribosylpyrophosphate for 4 h on a rotating rocker at 37° C.

HITC6 SMCs = assay: Senescence-associated beta-galactosidase activity / senescence-free survival; type: cell-based, human; settings: successive subcultures incubated with 10 nM FK866; p<0.0001
Protocol: Senescence-associated β-Galatosidase Activity Assay. SMCs on glass coverslips at approximately 70% confluence were fixed in 2% formaldehyde/0.2% glutaraldehyde in PBS for 3 minutes and incubated with X-gal-containing reaction mixture, as previously described (Dimri, 1995). Washed cells were stained with Hoechst 33258 (2.5 μg/ml) and the proportion of senescence-associated β-galactosidase (SA β-Gal)-positive cells quantified from 10 microscope fields of view (Olympus BX51, ×20 objective, approximately 1200 cells). Senescence-free survival was determined using Kaplan-Meier analysis of survival vs. replicative age.
Senescence-associated Beta-galactosidase Activity. Senescence-associated beta-galactosidase (SA-β-gal) activity was determined as previously described (Dimri et al, 1995). Briefly, SMCs were fixed in PBS containing 2% formaldehyde/0.2% glutaraldehyde for 3 min at room temperature. Fixed cells were then incubated for 4-6 h at 37° C. with SA-β-gal stain solution containing 150 mM NaCl, 2 mM MgCl, 40 mM citrate, 5 mM potassium ferrocyanide, 5 mM potassium ferricyanide, and 1 mg/ml of 5-bromo-4-chloro-3-indolyl-β-D-galactopyranoside (X-gal) (Invitrogen, Carlsbad, Calif., USA), at pH 6.0. SMCs were counterstained with 2.5 μg/ml Hoechst 33258 to detect cell nuclei. The proportion of SA-β-gal activity positive cells was quantified using light and fluorescence microscopy (Olympus BX51, Center Valley, Pa., USA).

SIRT1 = SIRT1 deacetylase activity in live SMCs (Fluor de Lys-SIRT1 substrate, TSA-independent); type: cell-based, human; settings: HITC6 SMCs incubated with 10 nM FK866, 48 h
Protocol: In vivo assessment of SIRT1 deacetylase activity. Cell-based assessment of SIRT1-like enzymatic activity was performed using the Fluor de lys-SIRT1 substrate (Biomol, Plymouth Meeting, Pa.), as previously described (de Boer, 2006). SMCs in phenol-red free M199 with 5% FBS were incubated for 2 h with 5 μM TSA followed by addition of the fluorogenic substrate for 4 h. Signal was quantified by spectrofluorimetry (Wallac, Wellesley, Mass.) and normalized to total protein content.
Assessment of SIRT1 Deacetylase Activity. SIRT1 deacetylase activity was quantified in live cells as previously reported (de Boer et al, 2006). SMCs cultured in phenol red-free M199 were incubated without serum for 2 h with 1 μM trichostatin A (Sigma, St. Louis, Mo., USA) followed by addition of 25 μM Fluor-de-Lys-SIRT1 fluorogenic substrate (Biomol, Plymouth Meeting, Pa., USA) for 4 h. Media containing fluorogenic substrate and reaction product was incubated with an equal volume of SIRT1 assay buffer containing 2 mM nicotinamide and developer (Biomol, Plymouth Meeting, Pa., USA). Signal was quantified by spectrofluorometry (Wallac VICTOR-1420, PerkinElmer Life Science, Waltham, Mass., USA) and normalized to total protein content

T1 sequence (P43490 whole entry): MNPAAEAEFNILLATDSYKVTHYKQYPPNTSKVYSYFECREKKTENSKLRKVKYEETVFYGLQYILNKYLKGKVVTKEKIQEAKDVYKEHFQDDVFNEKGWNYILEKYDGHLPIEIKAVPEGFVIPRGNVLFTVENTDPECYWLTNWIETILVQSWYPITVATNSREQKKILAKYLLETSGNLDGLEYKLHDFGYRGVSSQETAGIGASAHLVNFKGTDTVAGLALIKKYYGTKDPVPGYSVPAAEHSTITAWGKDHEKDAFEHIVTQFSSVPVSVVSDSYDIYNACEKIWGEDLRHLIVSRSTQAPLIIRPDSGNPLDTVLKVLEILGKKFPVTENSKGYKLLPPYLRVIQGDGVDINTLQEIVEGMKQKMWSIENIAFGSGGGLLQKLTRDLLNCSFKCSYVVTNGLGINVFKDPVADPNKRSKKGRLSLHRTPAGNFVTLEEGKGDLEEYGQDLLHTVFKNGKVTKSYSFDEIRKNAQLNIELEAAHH

Structure (SMILES): O=C(/C=C/c1cccnc1)NCCCCC1CCN(C(=O)c2ccccc2)CC1 [FK866, reference compound]
- PBEF activity in SMCs, % of baseline (Nampt; 10 nM FK866): 22±2%
- Nampt activity relative to basal level (Nampt; SMCs incubated with 10 nM FK866, p<0.001): 0.11±0.05
- senescence-free survival (Kaplan-Meier) (HITC6 SMCs): substantially shortened
- SIRT1 activity (SIRT1): substantial loss
